Data set [1] concerns the target hCA I (Homo sapiens, UniProt P00915). In words: stopped flow carbon dioxide hydrase assay, hCA I.
The test system of data set [2] is Bax. In words: Bax expression level (ELISA) in MCF-7 cells. The data set is classed as cell-based, human. Particulars: 24 h incubation. The method, then:
The levels of two members of Bcl-2 family proteins, the anti-apoptotic Bcl-2 protein, and the counteracting pro-apoptotic Bax protein, as well as the level of active caspase-3 (a key executioner protease) in MDA-MB-231 and MCF-7 cells have been assessed after incubation with QBS 11c and 13b for 24 h.
All adopted procedures for the conducted in vitro biological assays were performed as described earlier; CA (stopped-flow), cytotoxicity (MTT [37, 38]), and assessment of apoptotic markers assays, as well as induction of hypoxia with cobalt chloride, and were mentioned in the Supporting Materials. […]
monolay er. Cell monolay ers were treated in quadrates with vehicle (DMSO, 0.1% v/v), test samples or Adriamycin as positive control for an exposure time of 72 h. At the end of exposure, MTT solution in PBS (5 mg/ml) was then added to all well including no cell blank and left to incubate for 90 min. The formation of formazan crystals were visually confirmed using phase contract microscopy. DMSO (100 µl/well) was added to dissolve the formazan crystals with shaking for 10 min after which the absorbance was read at 590 nm against no cell blanks on a FLuo Star Optima microplate reader (BMG technologies, Germany). Cell proliferation was calculated comparing the OD values of the DMSO control wells and those of the samples represented as % proliferation to the control. Dose-response experiment was performed on samples producing > or =50% loss of cell proliferation using five serial 2-fold dilutions (50, 25, 12.5, 6.25 and 3.125 µM) of the sample. IC50 values (concentration of sample causing 50% loss of cell proliferation of the vehicle control) were calculated using non-linear regression curve fitting of the dose response plots on GraphPad Prism V.6.0 software.
3. Assessment of Apo ptotic Markers Levels
The levels of the pro-apoptotic markers (Bax and active caspase-3) as well as the anti-apoptotic marker Bcl-2 were determined using ELISA kits; Human Bax ELISA Kit (EIA-4487) DRG® Instruments, Bcl-2 ELISA Kit (99–0042), Zymed® Laboratories, Invitrogen Immunodetection, and Human Caspase-3 (active) ELISA Kit (KHO1091) Invitrogen®, per the manufacturer’s instructions. Breast cancer MDA-MB-231 and MCF-7 cells were cultured as a monolayer in T-25 flasks and were seeded to attain 30% confluency prior to treatment. Cells were then treated separately with MBFS 11b at its IC50 concentration for 24 h. […]
captured protein, forming a “sandwich” of specific antibodies around the desired protein in the cell lysate. […] The HRP domain reacted with the added TMB substrate to form a colored product that measured at 450 nm by a plate reader ChroMate-4300 after the reaction was terminated via the addition of stop solution. […]

Chain of hCA I (P00915 whole entry): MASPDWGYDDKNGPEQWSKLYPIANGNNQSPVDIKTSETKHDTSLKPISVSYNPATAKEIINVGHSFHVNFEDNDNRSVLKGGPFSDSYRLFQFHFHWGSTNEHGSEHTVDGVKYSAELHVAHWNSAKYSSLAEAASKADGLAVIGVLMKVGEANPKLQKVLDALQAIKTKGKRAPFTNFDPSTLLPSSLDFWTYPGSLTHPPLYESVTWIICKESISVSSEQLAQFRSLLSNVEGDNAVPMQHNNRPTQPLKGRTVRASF

With `COc1ccc2nccc(Nc3ccc(S(N)(=O)=O)cc3)c2c1` [13b, 4-((6-methoxyquinolin-4-yl)amino)benzenesulfonamide], the melting point lay in the range of 250 to 252 °C. For the same compound, the Ki in data set [1] turned out to be 92.1 nM. Further, in data set [2], the BAX is on record as 443.9 ± 10.2 Pg/mg of Total Protein and the “BAX, folds of control” value is 4.64 folds of control.

For the compound `NS(=O)(=O)c1cccc(Nc2ccnc3ccc(Cl)cc23)c1` [11c, 3-((6-chloroquinolin-4-yl)amino)benzenesulfonamide], affinity in data set [1] was put at a Ki of 442 nM. Further, in data set [2], the BAX was 512.9 ± 11.7 Pg/mg of Total Protein and the “BAX, folds of control” value is listed as 5.36 folds of control.
